Test results taken from patent publication US4218443A, “Polyether ionophores as antiobesity and hypotriglyceridemic agents” (Hoffmann-La Roche Inc., priority 1979, dated 1980).

Key:
[1] = system: hepatic fatty acid synthesis; test: In vivo hepatic fatty acid synthesis in meal-fed rats; set-up: species or system Charles River rat; conditions: sodium salt, mean ± SE
Method: (§1) In the following examples, female rats (Charles River CD strain, 180-200 g) were housed individually in wire bottom cages in a temperature (22°) and light (12 hr light and 12 hr dark) regulated room. They had free access to Purina Rodent Chow and water.

[2] = system: meal-fed Charles River rats; test: Food consumption and serum parameters in meal-fed rats (in vivo fatty acid synthesis experiments); set-up: species or system Charles River rat; conditions: sodium salt, mean ± SE
Method: as §1
Faster enzymatic procedure for serum triglycerides, Clinical Chemistry, 21: 1983-1985], cholesterol, [C. C. Allain, L. Poon, S. G. Chan, W. Richmond and P. Fu (1974). Enzymatic determination of total serum cholesterol, Clinical Chemistry, 20: 470-475] and glucose, [R. Konig, H. Dauwalder and R. Richterich (1971). Vergleichende Bestimmunogen der Uringlucosekonzentration mit der Polarimetrie und einer enzymatischen Methode (Hexokinase/Glucose-6-Phosphat-Dehydrogenase), Schweiz. Med. Wschr., 101: 860-866] by enzymatic procedures.

[3] = system: rats in the five day two hour meal model; test: Five day two hour meal model; type: in vivo, rat; conditions: sodium salt, mean ± SE
Method: A five day two hour meal model was developed to evaluate the effects of lipase inhibitors in vivo. [^14 C]-triolein and [^3 H]cholesterol were included in the 10% corn oil meal on days one and five. Test compound was administered as a dietary admix. Compound was first mixed into the fat component of the diet before the dry components were added. Food consumption and body weight gain were determined. Feces were collected from day two to day four. Rats were killed on day five and the small intestine and contents were removed for analysis.

[4] = system: obese and lean female Zucker rats; test: Chronic 21 day experiment in obese and lean Zucker rats; type: in vivo, Zucker rat; conditions: 150 mg/kg b.i.d. oral, 21 days, sodium salt, mean ± SE
Text: Ad libitum fed lean and genetically obese Zucker rats (140 days old) were used in one chronic study.
Faster enzymatic procedure for serum triglycerides, Clinical Chemistry, 21: 1983-1985], cholesterol, [C. C. Allain, L. Poon, S. G. Chan, W. Richmond and P. Fu (1974). Enzymatic determination of total serum cholesterol, Clinical Chemistry, 20: 470-475] and glucose, [R. Konig, H. Dauwalder and R. Richterich (1971). Vergleichende Bestimmungen der Uringlucosekonzentration mit der Polarimetrie und einer enzymatischen Methode (Hexokinase/Glucose-6-Phosphat-Dehydrogenase), Schweiz. Med. Wschr., 101: 860-866], by enzymatic procedures and free fatty acids, [C. Dalton and C. Kowalski (1967). Automated colorimetric determination of free fatty acids in biologic fluids, Clinical Chemistry, 13: 744-751], by a Colorimetric procedure. Serum immunoreactive insulins were determined by radioimmunoassay, [G. F. Bryce, P. R. Johnson, A. C. Sullivan, J. S. Stern (1977). Insulin and glucagon: Plasma levels and pancreatic release in the gentically obese Zucker rat, Hormone and Metabolic Research, 9: 366-370].
FIG. 2 sets forth body weight gain values of rats matched for initial body weight and pair fed 10% corn oil diet without dinitrodescarboxylasalocid and three groups of pair fed rats receiving 60, 120 and 240 mg/kg of dinitrodescarboxylasalocid as dietary admixes for 31 days respectively. […] Tables 12 and 13 describe the effects of dinitrodescarboxylasalocid (150 mg/kg b.i.d. by oral intubation) in genetically obese and lean Zucker rats for 21 days.

CC[C@@H](C(=O)[C@@H](C)[C@@H](O)[C@H](C)CCc1c([N+](=O)[O-])cc(C)c(O)c1[N+](=O)[O-])[C@H]1O[C@](CC)([C@H]2CC[C@](O)(CC)[C@H](C)O2)C[C@@H]1C [Dinitrodescarboxylasalocid]
Fatty Acid Synthesis 3H2O converted ([1]; 60 mg/kg i.p.): 12.5 ± 2.1 μmoles per 1 g liver in 30 min
Fatty Acid Synthesis [14C]alanine converted ([1]; 60 mg/kg i.p.): 208 ± 42 nmoles per 1 g liver in 30 min
Fatty Acid Synthesis 3H2O converted ([1]; Experiment 1, 240 mg/kg p.o.): 17.1 ± 3.5 μmoles per 1 g liver per 30 mi
Fatty Acid Synthesis [14C]alanine converted ([1]; Experiment 1, 240 mg/kg p.o.): 250 ± 87 nmoles per 1 g liver per 30 mi
Fatty Acid Synthesis 3H2O converted ([1]; Experiment 2, 60 mg/kg p.o.): 17.0 ± 3.1 μmoles per 1 g liver per 30 mi
Fatty Acid Synthesis [14C]alanine converted ([1]; Experiment 2, 60 mg/kg p.o.): 711 ± 130 nmoles per 1 g liver per 30 mi
Fatty Acid Synthesis 3H2O converted ([1]; Experiment 2, 120 mg/kg p.o.): 18.7 ± 2.1 μmoles per 1 g liver per 30 mi
Fatty Acid Synthesis [14C]alanine converted ([1]; Experiment 2, 120 mg/kg p.o.): 696 ± 80 nmoles per 1 g liver per 30 mi
Fatty Acid Synthesis 3H2O converted ([1]; Experiment 2, 240 mg/kg p.o.): 12.6 ± 1.4 μmoles per 1 g liver per 30 mi
Fatty Acid Synthesis [14C]alanine converted ([1]; Experiment 2, 240 mg/kg p.o.): 510 ± 64 nmoles per 1 g liver per 30 mi
Food Consumption ([2]; 60 mg/kg i.p.): 15.7 ± 0.4 g
Food Consumption ([2]; Experiment 1, 240 mg/kg p.o.): 11.0 ± 0.8 g
Serum Cholesterol ([2]; Experiment 1, 240 mg/kg p.o.): 85 ± 7 mg/100 ml
Serum Glucose ([2]; Experiment 1, 240 mg/kg p.o.): 194 ± 9 mg/100 ml
Serum Triglycerides ([2]; Experiment 1, 240 mg/kg p.o.): 42 ± 5 mg/100 ml
Food Consumption ([2]; Experiment 2, 60 mg/kg p.o.): 8.8 ± 1.0 g
Serum Cholesterol ([2]; Experiment 2, 60 mg/kg p.o.): 84 ± 3 mg/100 ml
Serum Glucose ([2]; Experiment 2, 60 mg/kg p.o.): 165 ± 6 mg/100 ml
Serum Triglycerides ([2]; Experiment 2, 60 mg/kg p.o.): 40 ± 4 mg/100 ml
Food Consumption ([2]; Experiment 2, 120 mg/kg p.o.): 10.7 ± 1.0 g
Serum Cholesterol ([2]; Experiment 2, 120 mg/kg p.o.): 82 ± 6 mg/100 ml
Serum Glucose ([2]; Experiment 2, 120 mg/kg p.o.): 168 ± 7 mg/100 ml
Serum Triglycerides ([2]; Experiment 2, 120 mg/kg p.o.): 31 ± 2 mg/100 ml
Food Consumption ([2]; Experiment 2, 240 mg/kg p.o.): 9.4 ± 1.1 g
Serum Cholesterol ([2]; Experiment 2, 240 mg/kg p.o.): 76 ± 7 mg/100 ml
Serum Glucose ([2]; Experiment 2, 240 mg/kg p.o.): 183 mg/100 ml
Serum Triglycerides ([2]; Experiment 2, 240 mg/kg p.o.): 31 ± 5 mg/100 ml
3H-Cholesterol in Feces ([3]; 120 mg/kg dietary admix): 28.6 ± 3.9 % of ingested
14C in Feces ([3]; 120 mg/kg dietary admix): 2.4 ± 0.7 % of ingested
Body weight gain (BWG) ([3]; 120 mg/kg dietary admix): -1 ± 3 g
Fat Absorption ([3]; 120 mg/kg dietary admix): 95.6 ± 0.5%
Intestinal Cholsterol Esters ([3]; 120 mg/kg): 7.7 ± 1.2 % of 14C-lipid
Intestinal Contents 3H-cholesterol ([3]; 120 mg/kg): 1.7 ± 0.2 % ingested
Intestinal Contents 14C-lipid ([3]; 120 mg/kg): 0.75 ± 0.10 % ingested
Intestinal Free Fatty Acids ([3]; 120 mg/kg): 61.9 ± 1.3 % of 14C-lipid
Intestinal Mono- and Diglyceride ([3]; 120 mg/kg): 15.3 ± 1.3 % of 14C-lipid
Intestinal Triglyceride ([3]; 120 mg/kg): 9.1 ± 0.8 % of 14C-lipid
3H-Cholesterol in Feces ([3]; 240 mg/kg dietary admix): 34.1 ± 2.6 % of ingested
14C in Feces ([3]; 240 mg/kg dietary admix): 4.4 ± 0.8 % of ingested
Body weight gain (BWG) ([3]; 240 mg/kg dietary admix): -3 ± 2 g
Fat Absorption ([3]; 240 mg/kg dietary admix): 92.8 ± 0.7%
Food Consumption ([3]; 240 mg/kg dietary admix): 7.2 ± 0.5 g/day
Intestinal Cholsterol Esters ([3]; 240 mg/kg): 7.1 ± 0.8 % of 14C-lipid
Intestinal Contents 3H-cholesterol ([3]; 240 mg/kg): 1.2 ± 0.2 % ingested
Intestinal Contents 14C-lipid ([3]; 240 mg/kg): 0.66 ± 0.13 % ingested
Intestinal Free Fatty Acids ([3]; 240 mg/kg): 59.6 ± 2.6 % of 14C-lipid
Intestinal Mono- and Diglyceride ([3]; 240 mg/kg): 15.9 ± 0.9 % of 14C-lipid
Intestinal Triglyceride ([3]; 240 mg/kg): 10.3 ± 0.7 % of 14C-lipid
Body Weight Gain ([4]; Fa/- (lean)): 20 ± 4 g
Fat Absorption ([4]; Fa/- (lean)): 90.1 ± 0.9%
Fecal Weight ([4]; Fa/- (lean)): 1.6 ± 0.1 g
Final Body Weight ([4]; Fa/- (lean)): 202 ± 5 g
Food Consumption ([4]; Fa/- (lean)): 16.8 ± 0.8 g/day
Serum Cholesterol ([4]; Fa/- (lean)): 84 ± 7 mg/100 ml
Serum Free Fatty Acids ([4]; Fa/- (lean)): 519 ± 58 μeq/l
Serum Glucose ([4]; Fa/- (lean)): 154 ± 6 mg/100 ml
Serum IRI (immunoreactive insulin) ([4]; Fa/- (lean)): 0.5 ± 0.1 ng/mL
Serum Triglycerides ([4]; Fa/- (lean)): 71 ± 5 mg/100 ml
Body Weight Gain ([4]; fa/fa (obese)): 61 ± 6 g
Fat Absorption ([4]; fa/fa (obese)): 93.0 ± 1.1%
Fecal Weight ([4]; fa/fa (obese)): 2.1 ± 0.1 g
Final Body Weight ([4]; fa/fa (obese)): 352 ± 12 g
Food Consumption ([4]; fa/fa (obese)): 19.5 ± 0.9 g/day
Serum Cholesterol ([4]; fa/fa (obese)): 168 ± 6 mg/100 ml
Serum Free Fatty Acids ([4]; fa/fa (obese)): 668 ± 59 μeq/l
Serum Glucose ([4]; fa/fa (obese)): 201 ± 12 mg/100 ml
Serum IRI (immunoreactive insulin) ([4]; fa/fa (obese)): 8.3 ± 0.6 ng/mL
Serum Triglycerides ([4]; fa/fa (obese)): 178 ± 19 mg/100 ml
